# Test results: publication PMC10895678 (Journal of Medicinal Chemistry, 2024)
# Key:
# M. tuberculosis H37Rv = test: Mycobacterial time kill experiments (total viable counts); type: cell-based, Mycobacterium tuberculosis; conditions: 29 μM, by day 10, to limit of detection (100 CFU mL^–1)
# BCG pTIC6-fbpA = type: cell-based, Mycobacterium bovis BCG
# BCG pTIC6-fbpC = type: cell-based, Mycobacterium bovis BCG
# BCG pTIC6-fbpB = type: cell-based, Mycobacterium bovis BCG
# M. smegmatis = test: MIC determination, resazurin end point assay, M. smegmatis; type: cell-based, Mycobacterium smegmatis
# M. bovis BCG = test: microbe, parasite or virus in culture; type: cell-based, Mycobacterium bovis BCG
compound,measurement,setting,value
"NNC(=O)c1ccncc1 [Isoniazid, reference compound]",reduction of total viable count,M. tuberculosis H37Rv,> 4.52 ± 0.60 log10 CFU mL^–1
"O=c1c2ccccc2[se]n1-c1ccccc1 [Ebselen, reference compound]",BCG pTIC6-fbpA MIC,BCG pTIC6-fbpA,28 µM
same,shift in MIC upon overexpression of FbpA,BCG pTIC6-fbpA,No shift in MIC
same,BCG pTIC6-fbpC MIC,BCG pTIC6-fbpC,98 µM
same,increase in MIC upon overexpression of FbpC,BCG pTIC6-fbpC,three-fold increase
same,BCG pTIC6-fbpB MIC,BCG pTIC6-fbpB,90 µM
same,increase in MIC upon overexpression of FbpB,BCG pTIC6-fbpB,three-fold increase
"(rac)-1-(((2,4-cis)-1-(2-bromobenzyl)-4-phenylazetidin-2-yl)methyl)-4-(4-(trifluoromethyl)phenyl)piperidine [BGAz-016]",MIC99,"M. smegmatis; resazurin end point assay, modified Gompertz function, three biological replicates, read-out: M. smeg. MIC99",100 µM
same,MIC50 smegmatis,M. smegmatis; supplementary MIC data file,34 µM
same,MIC99 smegmatis,M. smegmatis; supplementary MIC data file,> 100 µM
same,BCG MIC99,"M. bovis BCG; resazurin end point assay, modified Gompertz function, three biological replicates",60 µM
same,MIC50 BCG,M. bovis BCG; supplementary MIC data file,48 µM
same,MIC99 BCG,M. bovis BCG; supplementary MIC data file,60 µM
